Data: patent publication US11766411B2, “Use of cannabinoids in the treatment of epilepsy” (GW Research Limited, priority 2014, dated 2023)

Key:
[1] = test system: children and young adults with treatment-resistant Dravet syndrome; assay: Expanded access compassionate use program, Dravet syndrome sub-group; assay type: in vivo, human
Method: Twenty-seven children and young adults with severe, childhood onset treatment-resistant epilepsy (TRE) were tested with a highly purified extract of cannabidiol (CBD) obtained from a cannabis plant. The participants in the study were part of an expanded access compassionate use program for CBD.
All patients entered a baseline period of 4 weeks when parents/caregivers kept prospective seizure diaries, noting all countable motor seizure types.
The patients then received a highly purified CBD extract (greater than 98% CBD w/w) in sesame oil, of known and constant composition, at a dose of 5 mg/kg/day in addition to their baseline anti-epileptic drug (AED) regimen.
Laboratory testing for hematologic, liver, kidney function, and concomitant AED levels was performed at baseline, and after 4, 8 and 12 weeks of CBD therapy.
Nine children and young adults with treatment-resistant Dravet syndrome were part of an expanded access compassionate use program for highly purified CBD extract as described in Example 1.

patients with FIRES = assay: Expanded access program, febrile infection related epilepsy syndrome (FIRES) patients; assay type: in vivo, human; parameters: Change from Baseline: unit not given here; conditions: for % Change from Baseline / Change from Baseline / Frequency (per month) / Responder (>=50% Reduction) / Responder (>=70% Reduction) / Responder (>=90% Reduction) / Seizure Free: total seizures
Method: Three patients with FIRES, with an age range of from 4 to 15 years, were treated with CBD under an expanded access program as described previously in Example 1.
Safety laboratory studies, physical/neurological exams, 24 hour video/EEG and seizure types and frequencies were assessed at baseline and one month after starting CBD.
A highly purified extract of CBD as an oral solution in sesame oil was used at a concentration of 25 mg/mL.
Treatment was initiated at a dose of 10 mg/kg/day given in two divided doses, increasing by 5 mg/kg/day every 3 days.
Following seizure improvement an average of 2 AEDs were weaned.

[2] = 9 Dravet subjects, 3-month treatment period
[3] = Dravet patients (n = 9), after 3 months of therapy
[4] = FIRES patients (n = 3), after 12 weeks of treatment

**Q.** For `C=C(C)[C@@H]1CCC(C)=C[C@H]1c1c(O)cc(CCCCC)cc1O` [CBD, Cannabidiol], which Common adverse events [1, 2] is on record?
**A.** somnolence, fatigue, decreased appetite, increased appetite and diarrhoea

**Q.** What about the adverse events [1, 2] of the same compound?
**A.** mild and well tolerated

**Q.** What about the “subjects who withdrew during the treatment period” value [1, 2] of the same compound?
**A.** None

**Q.** And the “Responder rate (>50% reduction) [%]” value [1, 3]?
**A.** 56%

**Q.** And the “Responder rate (>50% reduction), number of patients” value [1, 3]?
**A.** 5

**Q.** What about the “Responder rate (>70% reduction) [%]” value [1, 3] of the same compound?
**A.** 44%

**Q.** And the “Responder rate (>70% reduction), number of patients” value [1, 3]?
**A.** 4

**Q.** And the “Responder rate (>90% reduction), number of patients” value [1, 3]?
**A.** 3

**Q.** And the “Seizure free [%]” value [1, 3]?
**A.** 22%

**Q.** And the “Seizure free, number of patients” value [1, 3]?
**A.** 2

**Q.** What about the “functional recovery after a reduction in seizures” value (patients with FIRES; FIRES patients) of the same compound?
**A.** able to walk and verbalise once more

**Q.** What about the “Responder rate (>50% reduction) [%]” value (patients with FIRES; [4]) of the same compound?
**A.** 67%

**Q.** What about the “Responder rate (>50% reduction), number of patients” value (patients with FIRES; [4]) of the same compound?
**A.** 2

**Q.** And the “Responder rate (>70% reduction) [%]” value (patients with FIRES; [4])?
**A.** 67%

**Q.** And the “Responder rate (>70% reduction), number of patients” value (patients with FIRES; [4])?
**A.** 2

**Q.** And the “Responder rate (>90% reduction) [%]” value (patients with FIRES; [4])?
**A.** 67%

**Q.** And the “Responder rate (>90% reduction), number of patients” value (patients with FIRES; [4])?
**A.** 2

**Q.** What about the “Seizure free [%]” value (patients with FIRES; [4]) of the same compound?
**A.** 33%

**Q.** And the “Seizure free, number of patients” value (patients with FIRES; [4])?
**A.** 1

**Q.** And the “seizure freedom over the treatment period” value (patients with FIRES; Patient 1, 24 week period)?
**A.** seizure free after starting treatment for almost all of the treatment period

**Q.** And the reduction in seizures (patients with FIRES; Patient 2, after 4 weeks)?
**A.** 50%

**Q.** And the “reduction in the number of seizures” value (patients with FIRES; Patient 3, week 24)?
**A.** greater than 90%

**Q.** And the “improvement in clinical and electrographic seizure burden” value (patients with FIRES; in two of the three children with refractory seizures or status epilepticus due to FIRES)?
**A.** greater than 90%

**Q.** What about the “Follow up laboratory tests (safety studies, concomitant AED levels)” value (patients with FIRES; three FIRES patients) of the same compound?
**A.** no changes in safety studies or concomitant AED levels

**Q.** What about the tolerability (patients with FIRES; three FIRES patients) of the same compound?
**A.** very well tolerated

**Q.** What about the “treatment related adverse effects” value (patients with FIRES; three FIRES patients) of the same compound?
**A.** No treatment related adverse effects

**Q.** What about the “% Change from Baseline” value (patients with FIRES; Patient 1, Wk 4) of the same compound?
**A.** −100.0%

**Q.** What about the “Change from Baseline” value (patients with FIRES; Patient 1, Wk 4) of the same compound?
**A.** −4.0

**Q.** And the “Frequency (per month)” value (patients with FIRES; Patient 1, Wk 4)?
**A.** 0.0 per month

**Q.** And the “Responder (>=50% Reduction)” value (patients with FIRES; Patient 1, Wk 4)?
**A.** Yes

**Q.** What about the “Responder (>=70% Reduction)” value (patients with FIRES; Patient 1, Wk 4) of the same compound?
**A.** Yes

**Q.** And the “Responder (>=90% Reduction)” value (patients with FIRES; Patient 1, Wk 4)?
**A.** Yes

**Q.** And the “Seizure Free” value (patients with FIRES; Patient 1, Wk 4)?
**A.** Yes

**Q.** And the “% Change from Baseline” value (patients with FIRES; Patient 1, Wk 8)?
**A.** −75.0%

**Q.** What about the “Change from Baseline” value (patients with FIRES; Patient 1, Wk 8) of the same compound?
**A.** −3.0

**Q.** And the “Frequency (per month)” value (patients with FIRES; Patient 1, Wk 8)?
**A.** 1.0 per month

**Q.** And the “Responder (>=50% Reduction)” value (patients with FIRES; Patient 1, Wk 8)?
**A.** Yes

**Q.** And the “Responder (>=70% Reduction)” value (patients with FIRES; Patient 1, Wk 8)?
**A.** Yes

**Q.** And the “Responder (>=90% Reduction)” value (patients with FIRES; Patient 1, Wk 8)?
**A.** No

**Q.** And the “Seizure Free” value (patients with FIRES; Patient 1, Wk 8)?
**A.** No

**Q.** And the “% Change from Baseline” value (patients with FIRES; Patient 1, Wk 12)?
**A.** −100.0%

**Q.** And the “Change from Baseline” value (patients with FIRES; Patient 1, Wk 12)?
**A.** −4.0

**Q.** What about the “Frequency (per month)” value (patients with FIRES; Patient 1, Wk 12) of the same compound?
**A.** 0.0 per month

**Q.** And the “Responder (>=50% Reduction)” value (patients with FIRES; Patient 1, Wk 12)?
**A.** Yes

**Q.** And the “Responder (>=70% Reduction)” value (patients with FIRES; Patient 1, Wk 12)?
**A.** Yes

**Q.** And the “Responder (>=90% Reduction)” value (patients with FIRES; Patient 1, Wk 12)?
**A.** Yes

**Q.** What about the “Seizure Free” value (patients with FIRES; Patient 1, Wk 12) of the same compound?
**A.** Yes

**Q.** And the “% Change from Baseline” value (patients with FIRES; Patient 1, Wk 16)?
**A.** −100.0%

**Q.** And the “Change from Baseline” value (patients with FIRES; Patient 1, Wk 16)?
**A.** −4.0

**Q.** What about the “Frequency (per month)” value (patients with FIRES; Patient 1, Wk 16) of the same compound?
**A.** 0.0 per month

**Q.** What about the “Responder (>=50% Reduction)” value (patients with FIRES; Patient 1, Wk 16) of the same compound?
**A.** Yes

**Q.** What about the “Responder (>=70% Reduction)” value (patients with FIRES; Patient 1, Wk 16) of the same compound?
**A.** Yes

**Q.** And the “Responder (>=90% Reduction)” value (patients with FIRES; Patient 1, Wk 16)?
**A.** Yes

**Q.** What about the “Seizure Free” value (patients with FIRES; Patient 1, Wk 16) of the same compound?
**A.** Yes

**Q.** What about the “% Change from Baseline” value (patients with FIRES; Patient 1, Wk 24) of the same compound?
**A.** −92.0%

**Q.** And the “Change from Baseline” value (patients with FIRES; Patient 1, Wk 24)?
**A.** −3.7

**Q.** What about the “Frequency (per month)” value (patients with FIRES; Patient 1, Wk 24) of the same compound?
**A.** 0.3 per month

**Q.** What about the “Responder (>=50% Reduction)” value (patients with FIRES; Patient 1, Wk 24) of the same compound?
**A.** Yes

**Q.** What about the “Responder (>=70% Reduction)” value (patients with FIRES; Patient 1, Wk 24) of the same compound?
**A.** Yes

**Q.** And the “Responder (>=90% Reduction)” value (patients with FIRES; Patient 1, Wk 24)?
**A.** Yes

**Q.** And the “Seizure Free” value (patients with FIRES; Patient 1, Wk 24)?
**A.** No

**Q.** What about the “% Change from Baseline” value (patients with FIRES; Patient 2, Wk 2) of the same compound?
**A.** −88.6%

**Q.** What about the “Change from Baseline” value (patients with FIRES; Patient 2, Wk 2) of the same compound?
**A.** −6.2

**Q.** And the “Frequency (per month)” value (patients with FIRES; Patient 2, Wk 2)?
**A.** 0.8 per month

**Q.** And the “Responder (>=50% Reduction)” value (patients with FIRES; Patient 2, Wk 2)?
**A.** Yes

**Q.** What about the “Responder (>=70% Reduction)” value (patients with FIRES; Patient 2, Wk 2) of the same compound?
**A.** Yes
